In paper PMC7288112 (Molecules, 2020):

Biological target: Rv1466 (Mycobacterium tuberculosis, UniProt O53157)
Test: biochemical
Format: binding

Chain of Rv1466 (O53157 entry or part of it): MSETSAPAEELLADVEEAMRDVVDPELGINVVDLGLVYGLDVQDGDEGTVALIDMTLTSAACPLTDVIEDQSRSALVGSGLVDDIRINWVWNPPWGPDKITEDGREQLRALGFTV

## O=C1C=C[C@@H]2O[C@H](c3ccccc3)[C@@H](O)[C@@H]2O1 [altholactone]
  Kd: 42 ± 6.1 µM
